For 21 compounds, EC50 and IC50 results are on record in patent publication US10428060B2, “PI-kinase inhibitors with anti-infective activity” (The Board of Trustees of the Leland Stanford Junior …, priority 2011, dated 2019).

One assay concerns HRV. Description: Rhinovirus antiviral assay. The assay is classed as cell-based. The conditions noted are these: Human rhinovirus sp.
As a reminder, the EC50 is the concentration at which the effect is half-maximal. A low value points to a more potent agent. Regarding `COc1ccc(NS(=O)(=O)c2cc(-c3sc(NC4CCCCCC4)nc3C)ccc2OC)c(C)c1` [Compound S-89, 5-[2-(cycloheptylamino)-4-methyl-thiazol-5-yl]-2-methoxy-N-(4-methoxy-2-methyl-phenyl)benzenesulfonamide; 2,2,2-trifluoroactic acid], the half-maximal effective concentration (EC50) is under 0.001 µM.

As for `COc1ccc(NS(=O)(=O)c2cc(-c3sc(NC(=O)CC4CCCCC4)nc3C)ccc2OC)c(C)c1` [Compound S-85, 2-cyclohexyl-N-[5-[4-methoxy-3-[(4-methoxy-2-methyl-phenyl)sulfamoyl]phenyl]-4-methyl-thiazol-2-yl]acetamide], the EC50 is under 0.001 µM.

`COc1ccc(-c2sc(NC3CCCCC3)nc2C)cc1S(=O)(=O)Nc1ccc(O)cc1C` [Compound S-106, 5-[2-(cyclohexylamino)-4-methyl-thiazol-5-yl]-N-(4-hydroxy-2-methyl-phenyl)-2-methoxy-benzenesulfonamide] returned a half-maximal effective concentration (EC50) of under 0.001 µM.

The target of a further assay is T1, PI3K p110g (Homo sapiens, UniProt P48736).
T1 construct: purchased Millipore
T1 sequence (P48736 whole entry): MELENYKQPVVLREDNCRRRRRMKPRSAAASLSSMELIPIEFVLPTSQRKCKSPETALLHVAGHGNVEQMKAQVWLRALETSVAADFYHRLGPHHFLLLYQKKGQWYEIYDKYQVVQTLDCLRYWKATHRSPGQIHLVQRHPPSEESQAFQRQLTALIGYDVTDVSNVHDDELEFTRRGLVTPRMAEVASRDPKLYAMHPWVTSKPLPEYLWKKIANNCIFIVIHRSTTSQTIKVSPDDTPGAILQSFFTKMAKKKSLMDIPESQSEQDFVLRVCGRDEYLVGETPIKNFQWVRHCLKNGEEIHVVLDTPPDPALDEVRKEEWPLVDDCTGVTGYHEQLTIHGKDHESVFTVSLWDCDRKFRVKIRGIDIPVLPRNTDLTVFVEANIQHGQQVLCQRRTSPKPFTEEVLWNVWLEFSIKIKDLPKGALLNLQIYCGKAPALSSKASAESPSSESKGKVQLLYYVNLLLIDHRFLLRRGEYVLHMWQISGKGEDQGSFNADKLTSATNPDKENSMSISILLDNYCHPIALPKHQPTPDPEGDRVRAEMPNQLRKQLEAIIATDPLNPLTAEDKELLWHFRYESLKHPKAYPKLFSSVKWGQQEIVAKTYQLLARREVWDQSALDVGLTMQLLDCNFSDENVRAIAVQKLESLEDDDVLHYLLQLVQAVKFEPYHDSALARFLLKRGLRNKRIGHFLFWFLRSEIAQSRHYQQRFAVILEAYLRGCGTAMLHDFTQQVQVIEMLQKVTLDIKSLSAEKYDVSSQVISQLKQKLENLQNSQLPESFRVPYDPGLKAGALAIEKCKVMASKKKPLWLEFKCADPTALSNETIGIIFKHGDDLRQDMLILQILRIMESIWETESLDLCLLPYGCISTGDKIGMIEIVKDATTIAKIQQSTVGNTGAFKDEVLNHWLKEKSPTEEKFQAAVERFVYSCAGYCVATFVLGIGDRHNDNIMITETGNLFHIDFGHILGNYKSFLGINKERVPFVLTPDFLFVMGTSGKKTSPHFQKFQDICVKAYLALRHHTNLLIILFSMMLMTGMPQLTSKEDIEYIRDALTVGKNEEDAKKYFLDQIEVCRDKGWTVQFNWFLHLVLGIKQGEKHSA
As to the kind of experiment: PI3K p110g kinase assay. The assay is classed as biochemical.
Settings: not given
The procedure:
(§1) In the assays described here, p110α-p85 complex and p110γ were acquired from Millipore. Assays were performed with Lα-phosphatidylinositol (Avanti) as described in Knight et al. Nat Protoc. 2007; 2 (10):2459-66. Inhibitor series were prepared 10% DMSO as 5× stocks for the assay. Assays of HsVps34 were performed as described in Knight et al, except that the final assay buffer composition used was changed to 20 mM HEPES 7.5, 100 mM NaCl, 3 mM MgCl, 1 mg/mL PI and 44 nM hvps34 was used in the assay. […] COS-7 cells were cultured in 10 cm dishes and transfected at 70% confluence with 10 μg of plasmid DNA (HA-tagged bovine PI4KIIIβ, HA-tagged human PI4KIIIα) using Lipofectamine 2000 and 5 ml Opti-MEM following the manufacturer's instructions. After 5 hours the transfection medium was replaced with 10 ml complete DMEM. 36 hrs post transfection, cells were washed once with 5 ml PBS (pH 7.4) and lysed in 1 ml of lysis buffer (1) on ice. Lysates were collected by scraping and after 15 min they were centrifuged at 13,000 rpm for 10 min. To the lysates was added 200 μl of protein G Sepharose 4 fast flow beads that were prewashed with PBS and lysis buffer and 2 μg of anti-HA antibody. The tubes were then incubated overnight at 4 degrees C. in a tube rotator. The Sepharose beads in the lysate were washed twice with 150 mM NaCl in RIPA buffer, twice with RIPA buffer and once with kinase buffer (50 mM Tris/HCl, pH 7.5, 20 mM MgCl2, 1 mM EGTA, 1 mM PtdIns, 0.4% Triton X-100, 0.5 mg/mL BSA) and finally the beads were resuspended in 200 μL kinase buffer. Kinase reactions were run in a mixture of 45 μL of PI buffer (1 mM PI in kinase buffer), 10 μL of immunoprecipitated beads, 2 µL of inhibitors (dissolved and diluted in DMSO) or DMSO and 5 μL of [γ-^32P]-ATP (1 mM and 2 μCi/tube). The immunoprecipitates in PI buffer were pre-incubated with the drugs for 20 min prior the initiation of kinase reaction by adding ATP and the reactions were carried out for 30 min in 15 ml polypropolyne tubes. Reactions were terminated by addition of 3 ml of CHCl3:CH3OH:HCl (200:100:0.75) followed by 0.6 ml of 0.6N HCl to induce phase separation. The mixtures were vortexed, centrifuged at 2000 rpm for 2 min and the upper phase was discarded. To the lower phase was added 1.5 ml of CHCl3:CH3OH:0.6N HCl (3:48:47) and the mixture vortexed and centrifuged at 2000 rpm for 2 min. The lower phase was then transferred to counting vials and evaporated. Samples were counted in a scintillation beta counter after adding 5 ml of Instafluor (Perkin-Elmer).
PI-kinase assay: Compounds are tested in C.1.1. PI kinase assays as described by Shokat et al., “A membrane capture assay for lipid kinase activity.” Nat. Protoc. 2007; 2(10):2459-66.
For orientation: IC50 means the point on the concentration scale where inhibition reaches its midpoint. A low value points to inhibition by little substance. With `COc1ccc(-c2sc(N[C@H](C)C3CCCCC3)nc2C)cc1S(=O)(=O)NC1CCNCC1` [Compound S-147, 5-[2-[[(1R)-1-cyclohexylethyl]amino]-4-methyl-thiazol-5-yl]-2-methoxy-N-(4-piperidyl)benzenesulfonamide], the IC50 was over 10 µM.

As for `COc1ccc(-c2sc(NC(=O)CC3CCOCC3)nc2C)cc1S(=O)(=O)Nc1ccc(F)cc1` [Compound S-170, N-[5-[3-[(4-fluorophenyl)sulfamoyl]-4-methoxy-phenyl]-4-methyl-thiazol-2-yl]-2-tetrahydropyran-4-yl-acetamide], the half-inhibitory concentration (IC50) was over 10 µM.

The compound `COc1ncc(-c2sc(NC(=O)CC3CCOCC3)nc2C)cc1S(=O)(=O)Nc1cccc(O)c1` [Compound S-259] displayed an IC50 of 1 to 10 µM.

Take `COc1ccc(-c2sc(NC3CCCCC3)nc2C)cc1S(=O)(=O)NC1CCCC1` [Compound S-129, 5-[2-(cyclohexylamino)-4-methyl-thiazol-5-yl]-N-cyclopentyl-2-methoxy-benzenesulfonamide]: the IC50 is over 10 µM.

`COc1ncc(-c2sc(NC(=O)CC3CCOCC3)nc2C)cc1S(=O)(=O)Nc1cccc(C(=O)O)c1` [Compound S-265] showed an IC50 of over 10 µM.

As to `COc1ncc(-c2sc(NC(=O)CC3CCOCC3)nc2C)cc1S(=O)(=O)N[C@H]1CC[C@@H](O)CC1` [Compound S-262], the IC50 was 1 to 10 µM.

`COc1ccc(-c2sc(N[C@H](C)CC3CCCCC3)nc2C)cc1S(=O)(=O)NC1CCNCC1` [Compound S-145, 5-[2-[[(1R)-2-cyclohexyl-1-methyl-ethyl]amino]-4-methyl-thiazol-5-yl]-2-methoxy-N-(4-piperidyl)benzenesulfonamide] had an IC50 of over 10 µM.

Regarding `COc1ccc(-c2sc(NCC3CCCCC3)nc2C)cc1S(=O)(=O)NCC1CCCCC1` [Compound S-128, N-(cyclohexylmethyl)-5-[2-(cyclohexylmethylamino)-4-methyl-thiazol-5-yl]-2-methoxy-benzenesulfonamide], the 50% inhibitory concentration (IC50) is over 10 µM.

As to `COc1ccc(-c2sc(NC(=O)CC3CCOCC3)nc2C)cc1S(=O)(=O)Nc1cc(C)cc(O)c1` [Compound S-169, N-[5-[3-[(3-hydroxy-5-methyl-phenyl)sulfamoyl]-4-methoxy-phenyl]-4-methyl-thiazol-2-yl]-2-tetrahydropyran-4-yl-acetamide], the IC50 was over 10 µM.

`COc1ccc(-c2sc(NCC3CCCCC3)nc2C)cc1S(=O)(=O)NC1CC1` [Compound S-127, 5-[2-(cyclohexylmethylamino)-4-methyl-thiazol-5-yl]-N-cyclopropyl-2-methoxy-benzenesulfonamide]: the half-inhibitory concentration (IC50) was over 10 µM.

As to `COc1ccc(-c2sc(NC(=O)CC3CCCC3)nc2C)cc1S(=O)(=O)Nc1ccc(C)nc1` [Compound S-100, 2-cyclopentyl-N-[5-[4-methoxy-3-[(6-methyl-3-pyridyl)sulfamoyl]phenyl]-4-methyl-thiazol-2-yl]acetamide; 2,2,2-trifluoroacetic acid], the IC50 is over 10 µM.

For a further assay, the target named is T2, PI4KIIIB (Bos taurus, UniProt O02810).
T2 construct: made in house; host or cells: COS-7 cells, transient transfection, anti-HA immunoprecipitate on protein G Sepharose beads
T2 sequence (O02810 whole entry): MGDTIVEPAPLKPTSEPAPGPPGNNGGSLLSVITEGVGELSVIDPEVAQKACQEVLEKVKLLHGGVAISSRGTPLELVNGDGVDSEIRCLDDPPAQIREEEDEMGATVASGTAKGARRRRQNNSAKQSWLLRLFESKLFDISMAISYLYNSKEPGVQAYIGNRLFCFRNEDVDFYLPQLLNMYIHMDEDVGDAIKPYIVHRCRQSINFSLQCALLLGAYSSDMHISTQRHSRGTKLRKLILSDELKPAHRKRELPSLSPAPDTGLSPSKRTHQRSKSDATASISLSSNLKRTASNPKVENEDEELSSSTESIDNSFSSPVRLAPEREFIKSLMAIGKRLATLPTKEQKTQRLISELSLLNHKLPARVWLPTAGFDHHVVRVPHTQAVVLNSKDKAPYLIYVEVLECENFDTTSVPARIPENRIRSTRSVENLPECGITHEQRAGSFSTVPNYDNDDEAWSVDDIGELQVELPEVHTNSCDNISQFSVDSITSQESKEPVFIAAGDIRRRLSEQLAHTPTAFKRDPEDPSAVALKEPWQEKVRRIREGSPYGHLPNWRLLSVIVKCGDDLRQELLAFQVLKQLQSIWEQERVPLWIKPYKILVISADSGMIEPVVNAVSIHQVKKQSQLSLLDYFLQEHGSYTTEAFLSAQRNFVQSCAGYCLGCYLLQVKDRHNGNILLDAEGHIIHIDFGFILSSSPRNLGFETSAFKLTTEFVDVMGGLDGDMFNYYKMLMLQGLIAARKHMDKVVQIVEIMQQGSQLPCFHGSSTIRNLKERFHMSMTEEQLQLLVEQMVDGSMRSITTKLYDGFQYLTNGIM
Description: PI4KIIIB kinase assay. The class given is biochemical, bovine.
Settings: not given
The method, then:
as §1, with “2007; 2 (10):2459-66.” left out, “for” for “for the assay. Assays of HsVps34 were performed as described in Knight et al, except that the final assay buffer composition used was changed to 20 mM HEPES 7.5, 100 mM NaCl, 3 mM MgCl, 1 mg/mL PI and 44 nM hvps34 was used in”, “Lysates were collected by scraping and after 15 min they were centrifuged at 13,000 rpm for 10 min.” left out, “The Sepharose beads in the lysate were washed twice with 150 mM NaCl in RIPA buffer, twice with RIPA buffer and once with kinase buffer (50 mM Tris/HCl, pH 7.5, 20 mM MgCl2, 1 mM EGTA, 1 mM PtdIns, 0.4% Triton X-100, 0.5 mg/mL BSA) and finally the beads were resuspended in 200 μL kinase buffer.” left out
PI-kinase assay: Compounds are tested in C.1.1. PI kinase assays as described by Shokat et al., “A membrane capture assay for lipid kinase activity.” Nat. Protoc.
Consider `COc1ccc(-c2sc(NC(=O)CCC3CCCC3)nc2C)cc1S(=O)(=O)NC1CCC(O)CC1` (stereo not drawn) [Compound S-156, 3-cyclopentyl-N-[5-[3-[(4-hydroxycyclohexyl)sulfamoyl]-4-methoxy-phenyl]-4-methyl-thiazol-2-yl]propanamide], for which the IC50 is under 0.1 µM.

Turning to `COc1ccc(-c2sc(NCC(C)C)nc2C)cc1S(=O)(=O)NC1CCCC(O)C1` (stereo not drawn) [Compound S-223, N-(3-hydroxycyclohexyl)-5-[2-(isobutylamino)-4-methyl-thiazol-5-yl]-2-methoxy-benzenesulfonamide; 2,2,2-trifluoroacetic acid], the IC50 is under 0.1 µM.

Take `COc1ccc(-c2sc(NC(C)(C)C)nc2C)cc1S(=O)(=O)NC1CCCNC1` (stereo not drawn) [Compound S-220, 5-[2-(tert-butylamino)-4-methyl-thiazol-5-yl]-2-methoxy-N-(3-piperidyl)benzenesulfonamide]: the concentration for half-maximal inhibition (IC50) was under 0.1 µM.

In turn, `COc1ccc(-c2sc(NC(=O)CC3CCCC3)nc2C)cc1S(=O)(=O)NC1CCCNC1` (stereo not drawn) [Compound S-173, 2-cyclopentyl-N-[5-[4-methoxy-3-(3-piperidylsulfamoyl)phenyl]-4-methyl-thiazol-2-yl]acetamide; 2,2,2-trifluoroacetic acid] returned an IC50 of under 0.1 µM.

Regarding `COc1ccc(-c2sc(NCC3CCCCC3)nc2C)cc1S(=O)(=O)NC1CCCC(O)C1` (stereo not drawn) [Compound S-199, 5-[2-(cyclohexylmethylamino)-4-methyl-thiazol-5-yl]-N-(3-hydroxycyclohexyl)-2-methoxy-benzenesulfonamide], the IC50 was under 0.1 µM.

Turning to `COc1ccc(-c2sc(NC(C)(C)C)nc2C)cc1S(=O)(=O)NC1CCCC(O)C1` (stereo not drawn) [Compound S-218, 5-[2-(tert-butylamino)-4-methyl-thiazol-5-yl]-N-(3-hydroxycyclohexyl)-2-methoxy-benzenesulfonamide], the IC50 was under 0.1 µM.

The compound `Cc1ccc(-c2sc(NC(=O)CC3CCCC3)nc2C)cc1S(=O)(=O)NC1CCCNC1` (stereo not drawn) [Compound S-189, 2-cyclopentyl-N-[4-methyl-5-[4-methyl-3-(3-piperidylsulfamoyl)phenyl]thiazol-2-yl]acetamide] had an IC50 of under 0.1 µM.
